This is an account of results in patent US6921821B2, “Antagonists of melanin concentrating hormone receptor” (Abbott Laboratories, priority 2002, dated 2005).

Structures can show the parent of a compound that is named as a salt.

The target of this assay is T1, murine MCHR (Mus musculus, UniProt Q8JZL2).
T1 construct: expressed in transfected cells; host or cells: HEK293
T1 sequence (Q8JZL2 whole entry): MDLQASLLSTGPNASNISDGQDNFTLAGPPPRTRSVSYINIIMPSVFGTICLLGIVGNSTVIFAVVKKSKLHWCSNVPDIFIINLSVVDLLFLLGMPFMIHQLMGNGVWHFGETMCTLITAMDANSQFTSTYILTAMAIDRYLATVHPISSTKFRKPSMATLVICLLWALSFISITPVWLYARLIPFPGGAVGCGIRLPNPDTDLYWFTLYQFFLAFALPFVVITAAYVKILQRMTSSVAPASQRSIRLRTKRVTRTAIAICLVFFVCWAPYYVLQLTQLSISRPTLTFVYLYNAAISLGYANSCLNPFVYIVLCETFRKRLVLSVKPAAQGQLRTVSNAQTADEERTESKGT
Kind of assay: Assay for release of intracellular calcium (FLIPR, Fluo-4), inhibition of MCH-induced Ca++ flux. The format is cell-based. The settings on record: test compound at a dose of 10 μM, HEK293 cells expressing the murine MCHR, read-out: inhibition of MCH (MCH induced Ca++ flux / fluorescence). The procedure:
Assay for Release of Intracellular Calcium
Activation of the melanin concentrating hormone receptor (MCHR) by MCH induces the release of Ca^++ from intracellular stores. This intracellular calcium release is measured using a fluorometric imaging plate reader (FLIPR™, Molecular Devices Corp.) in conjunction with the Ca^++-sensitive dye Fluo-4. Release of Ca^++ from intracellular stores causes an increase in fluorescence of the dye that is proportional to Ca^++ concentration. Briefly, the assays are performed as follows. HEK293 cells expressing the murine MCHR are plated overnight at 50,000 cells/well in 96-well plates. The following day, culture medium is removed and replaced with 100 μl/well of D-PBS (+glucose and sodium pyruvate) containing 2.5 μM Fluo-4AM (Molecular Probes), 0.01% Pluronic F-127 and 2.5 mM probenecid. Cells are loaded with the Fluo-4 dye for at least one hour at room temp. After loading, the cells are washed gently to remove extracellular dye and 100 μl of D-PBS (+glucose and sodium pyruvate) is added to each well. Test compounds are prepared at 40 μM in 4% DMSO. The cell plate is placed in the FLIPR™ and 50 μl/well of test compound is delivered. The calcium signal is followed for 3 minutes to assay for potential agonist activity by the test compounds. Then 50 μl/well of 12 nM mouse MCH (in D-PBS containing 0.1% BSA) is added and the ligand-induced calcium signal is followed for an additional 3 minutes. Antagonist activity as determined by the test compounds ability to inhibit MCH induced Ca^++ flux is calculated as % inhibition as described by the following formula: % inhibition=[1−((fTC−fB)÷(fMCH−fB))]×100, where fTC=MCH-induced fluorescence in the presence of test compound; fMCH=MCH-induced fluorescence in the absence of test compound; and fB=Baseline fluorescence.
MCH (3 nM) usually elicits a response of 30,000-40,000 relative fluorescence units (RFU) with a baseline of about 1000 RFU. Fluo-4 fluorescence is measured at 488 nm, with an exposure of 0.40 sec. and F-stop=2.0 and the laser set at 0.40-0.60 W constant light output.
A general note: Calcium assays in cells follow changes in intracellular calcium, usually with a dye or a luminescent sensor.
Turning to `C=Cc1ccc2oc(=O)cc(NC3CCN(Cc4ccc5ocnc5c4)CC3)c2c1` [II-100, 4-(1-Benzooxazol-5-ylmethyl-piperidin-4-ylamino)-6-vinyl-chromen-2-one], the inhibition at 10 µM is not below 50%.

Take `CON(C)C(=O)c1c(NC2CCN(Cc3ccc4c(c3)OCO4)CC2)c2cc(Cl)ccc2n(C)c1=O` [Compound V-52, 4-(1-Benzo[1,3]dioxol-5-ylmethyl-piperidin-4-ylamino)-6-chloro-1-methyl-2-oxo-1,2-dihydro-quinoline-3-carboxylic acid methoxy-methyl-amide]: the inhibition at 10 µM is not below 50%.

For the compound `CCn1ccc2cc(CN3CCC(Nc4cc(=O)oc5ccc(OC)cc45)CC3)ccc21` [II-33, 6-Methoxy-4-[N-ethylindole-5-ylmethyl-piperidin-4-ylamino]-chromen-2-one], the inhibition at 10 µM was not below 50%.

Take `N#Cc1ccc2oc(=O)cc(NC3CCN(C/C=C/c4ccccc4)CC3)c2c1` [III-59, 2-Oxo-4-[1-(3-phenyl-allyl)-piperidin-4-ylamino]-2H-chromene-6-carbonitrile]: the inhibition at 10 µM was not below 50%.

As for `CC(=O)Nc1c(NC2CCN(Cc3ccc4c(c3)OCO4)CC2)c2cc(Cl)ccc2oc1=O` [II-42, N-[4-(1-Benzo[1,3]dioxol-5-ylmethyl-piperidin-4-ylamino)-6-chloro-2-oxo-2H-chromen-3-yl]-acetamide], the inhibition at 10 µM was not below 50%.

Turning to `Cn1c(=O)cc(NC2CCN(Cc3ccc4ccccc4c3)CC2)c2cc(O)ccc21` [Compound V-46, 6-Hydroxy-1-methyl-4-(1-naphthalen-2-ylmethyl-piperidin-4-ylamino)-1H-quinolin-2-one], the inhibition at 10 µM was not below 50%.

`CCn1c(=O)cc(NC2CCN(Cc3ccc4ccccc4c3)CC2)c2cc(Cl)ccc21` [Compound V-6, 6-Chloro-1-ethyl-4-(1-naphthalen-2-ylmethyl-piperidin-4-ylamino)-1H-quinolin-2-one]: the inhibition at 10 µM is not below 50%.

Take `CC(c1ccc2c(c1)OCO2)N1CCC(Nc2c(C(=O)N(C)C)c(=O)n(C)c3ccc(Cl)cc23)CC1` (stereo not shown) [Compound V-34, 4-[1-(1-Benzo[1,3]dioxol-5-yl-ethyl)-piperidin-4-ylamino]-6-chloro-1-methyl-2-oxo-1,2-dihydro-quinoline-3-carboxylic acid dimethylamide]: the inhibition at 10 µM is not below 50%.

Regarding `COC(=O)c1c(NC2CCN(Cc3ccc4c(c3)OCO4)CC2)c2cc(Cl)ccc2n(C)c1=O` [Compound V-39, 4-(1-Benzo[1,3]dioxol-5-ylmethyl-piperidin-4-ylamino)-6-chloro-1-methyl-2-oxo-1,2-dihydro-quinoline-3-carboxylic acid methyl ester], the inhibition at 10 µM is not below 50%.

With `O=c1cc(NC2CCN(Cc3ccc4ccccc4c3)CC2)c2cc(Cl)ccc2n1Cc1cccnc1` [Compound V-1, 6-Chloro-4-(1-naphthalen-2-ylmethyl-piperidin-4-ylamino)-1-pyridin-3-ylmethyl-1H-quinolin-2-one], the inhibition at 10 µM is not below 50%.

For `Cc1ccc2oc(=O)cc(NC3CCN(C/C=C/c4ccccc4[N+](=O)[O-])CC3)c2c1` [III-12, 6-Methyl-4-{1-[3-(2-nitro-phenyl)-allyl]-piperidin-4-ylamino}-chromen-2-one], the inhibition at 10 µM is not below 50%.

In the case of `O=c1cc(NC2CCN(Cc3ccc4ocnc4c3)CC2)c2cc(Cl)ccc2o1` [II-95, 4-{1-Benzooxazol-5-ylmethyl-piperidin-4-ylamino)-6-chloro-chromen-2-one], the inhibition at 10 µM was not below 50%.

Regarding `COc1ccc2oc(=O)cc(NC3CCN(Cc4ccc(C)c(F)c4)CC3)c2c1` [II-105, 4-[1-(3-Fluoro-4-methyl-benzyl)-piperidin-4-ylamino]-6-methoxy-chromen-2-one trifluoroacetate], the inhibition at 10 µM is not below 50%.

For the compound `COc1ccc2oc(=O)cc(N[C@@H]3CCN(Cc4ccc5c(c4)OCO5)C[C@H]3C)c2c1` (stereo in doubt) [II-72, 4-(1-Benzo[1,3]dioxol-5-ylmethyl-3-methyl-piperidin-4-ylamino)-6-methoxy-chromen-2-one], the inhibition at 10 µM was not below 50%.

For the compound `O=c1cc(NC2CC3CCC(C2)N3Cc2ccc3c(c2)OCO3)c2cc(Cl)ccc2n1CC(F)(F)F` (stereo not shown) [Compound V-57], the inhibition at 10 µM was not below 50%.

As to `COc1ccc2oc(=O)cc(NC3CCN(Cc4ccc(OC)c(C)c4)CC3)c2c1` [II-37, 6-Methoxy-4-[1-(4-methoxy-3-methyl-benzyl)-piperidin-4-ylamino]-chromen-2-one trifluoroacetate], the inhibition at 10 µM was not below 50%.

For the compound `Cn1c(=O)cc(NC2CCN(Cc3ccc4c(c3)OCO4)CC2)c2cc(C(F)(F)F)ccc21` [Compound V-31, 4-(1-Benzo[1,3]dioxol-5-ylmethyl-piperidin-4-ylamino)-1-methyl-6-trifluoromethyl-1H-quinolin-2-one], the inhibition at 10 µM is not below 50%.

For the compound `Cc1cc2cc(CN3CCC(Nc4cc(=O)oc5ccc(Cl)cc45)CC3)ccc2o1` [II-61, 6-Chloro-4-[1-(2-methyl-benzofuran-5-ylmethyl)-piperidin-4-ylamino]-chromen-2-one], the inhibition at 10 µM is not below 50%.

On to `COc1ccc2c(c1)c(NC1CCN(Cc3ccc4ccccc4c3)CC1)cc(=O)n2C` [Compound V-9, 6-Methoxy-1-methyl-4-(1-naphthalen-2-ylmethyl-piperidin-4-ylamino)-1H-quinolin-2-one], for which the inhibition at 10 µM was not below 50%.

For the compound `NC(=O)c1cccc(CN2CCC(Nc3cc(=O)oc4ccc(Cl)cc34)CC2)c1` [II-99, 3-[4-(6-Chloro-2-oxo-2H-chromen-4-ylamino)-piperidin-1-ylmethyl]-benzamide], the inhibition at 10 µM was not below 50%.

As to `COc1ccc2oc(=O)cc(NC3CCN(Cc4ccc5c(c4)OCCO5)CC3)c2c1` [II-64, 4-[1-(2,3-Dihydro-benzo[1,4]dioxin-6-ylmethyl)-piperidin-4-ylamino]-6-methoxy-chromen-2-one trifluoroacetate], the inhibition at 10 µM is not below 50%.

In the case of `COc1ccc2oc(=O)cc(NC3CCN(Cc4ccc(OCCCN5CCCCC5)c(F)c4)CC3)c2c1` [II-47, 4-{1-[3-Fluoro-4-(3-piperidin-1-yl-propoxy)-benzyl]-piperidin-4-ylamino}-6-methoxy-chromen-2-one; Double TFA Salt], the inhibition at 10 µM was not below 50%.

With `C=Cc1ccc2oc(=O)cc(NC3CCN(Cc4ccc5c(c4)OCO5)CC3)c2c1` [II-35, 4-(1-Benzo[1,3]dioxol-5-ylmethyl-piperidin-4-ylamino)-6-vinyl-chromen-2-one], the inhibition at 10 µM was not below 50%.

Take `COc1ccc2oc(=O)c(F)c(NC3CCN(Cc4ccc5c(c4)OCO5)CC3)c2c1` [II-26, 4-(1-Benzo{1,3}dioxol-5-ylmethyl-piperidin-4-ylamino)-3-fluoro-6-methoxychromene-2-one]: the inhibition at 10 µM was not below 50%.

In the case of `C[C@@H](c1ccc2ccccc2c1)N1CCC(Nc2cc(=O)oc3ccc(Cl)cc23)CC1` [II-120, (S)-6-Chloro-4-[1-(1-naphthalen-2-yl-ethyl)-piperdin-4-ylamino]-chromen-2-one], the inhibition at 10 µM was not below 50%.

Turning to `COc1ccc2oc(=O)cc(NC3CCN(Cc4ccc(C(=O)NCCc5ccccn5)cc4)CC3)c2c1` [II-83, 4-[4-(6-Methoxy-2-oxo-2H-chromen-4-ylamino)-piperidin-1-ylmethyl]-N-(2-pyridin-2-yl-ethyl)-benzamide; Double TFA Salt], the inhibition at 10 µM is not below 50%.

With `COc1ccc([C@@H](C)N2CCC(Nc3cc(=O)oc4ccc(Cl)cc34)CC2)cc1F` (stereo in doubt) [II-45, 6-Chloro-4-{1-[1-(3-fluoro-4-methoxy-phenyl)-ethyl]-piperidin-4-ylamino}-chromen-2-one], the inhibition at 10 µM was not below 50%.

As for `O=c1cc(NC2CCN(Cc3ccc4c(c3)OCO4)CC2)c2cc(Cl)ccc2n1Cc1ccccc1` [Compound V-3, 4-(1-Benzo[1,3]dioxol-5-ylmethyl-piperidin-4-ylamino)-1-benzyl-6-chloro-1H-quinolin-2-one], the inhibition at 10 µM was not below 50%.

Regarding `O=c1cc(NC2CCN(Cc3ccc4c(c3)OCO4)CC2)c2cccc3c2n1CCC3` [Compound V-36, 1-(1-Benzo[1,3]dioxol-5-ylmethyl-piperidin-4-ylamino)-6,7-dihydro-5H-pyrido[3,2,1-ij]quinolin-3-one], the inhibition at 10 µM is not below 50%.

In the case of `O=c1cc(NC2CCN(C/C=C/c3ccccc3)CC2)c2ccccc2o1` [III-24, 4-[1-(3-Phenyl-allyl)-piperidin-4-ylamino]-chromen-2-one], the inhibition at 10 µM was not below 50%.

As to `COc1ccccc1/C=C/CN1CCC(Nc2cc(=O)oc3ccc(C)cc23)CC1` [III-19, 4-{1-[3-(2-Methoxy-phenyl)-allyl]-piperidin-4-ylamino}-6-methyl-chromen-2-one], the inhibition at 10 µM is not below 50%.
